# Calls of active or inactive are those of the source. No cut-off for these calls is given here.
# Legend:
# [1] = Cytotoxicity against human HEK293 cells transfected with human TLR7/8 assessed as reduction in cell viability incubated for 24 hrs by MTS assay; format: cell-based; conditions: read-out: MNCC
# Toll-like receptor 7 = molecular target: T1, Toll-like receptor 7 (Homo sapiens, UniProt Q9NYK1); experiment: Agonist activity at human TLR7 in HEK293 cells cotransfected with SEAP reporter gene assessed as activity of SEAP incubated for 24 hrs by quanti-blue staining based SEAP reporter gene assay; format: cell-based
# T1 sequence (Q9NYK1 whole entry): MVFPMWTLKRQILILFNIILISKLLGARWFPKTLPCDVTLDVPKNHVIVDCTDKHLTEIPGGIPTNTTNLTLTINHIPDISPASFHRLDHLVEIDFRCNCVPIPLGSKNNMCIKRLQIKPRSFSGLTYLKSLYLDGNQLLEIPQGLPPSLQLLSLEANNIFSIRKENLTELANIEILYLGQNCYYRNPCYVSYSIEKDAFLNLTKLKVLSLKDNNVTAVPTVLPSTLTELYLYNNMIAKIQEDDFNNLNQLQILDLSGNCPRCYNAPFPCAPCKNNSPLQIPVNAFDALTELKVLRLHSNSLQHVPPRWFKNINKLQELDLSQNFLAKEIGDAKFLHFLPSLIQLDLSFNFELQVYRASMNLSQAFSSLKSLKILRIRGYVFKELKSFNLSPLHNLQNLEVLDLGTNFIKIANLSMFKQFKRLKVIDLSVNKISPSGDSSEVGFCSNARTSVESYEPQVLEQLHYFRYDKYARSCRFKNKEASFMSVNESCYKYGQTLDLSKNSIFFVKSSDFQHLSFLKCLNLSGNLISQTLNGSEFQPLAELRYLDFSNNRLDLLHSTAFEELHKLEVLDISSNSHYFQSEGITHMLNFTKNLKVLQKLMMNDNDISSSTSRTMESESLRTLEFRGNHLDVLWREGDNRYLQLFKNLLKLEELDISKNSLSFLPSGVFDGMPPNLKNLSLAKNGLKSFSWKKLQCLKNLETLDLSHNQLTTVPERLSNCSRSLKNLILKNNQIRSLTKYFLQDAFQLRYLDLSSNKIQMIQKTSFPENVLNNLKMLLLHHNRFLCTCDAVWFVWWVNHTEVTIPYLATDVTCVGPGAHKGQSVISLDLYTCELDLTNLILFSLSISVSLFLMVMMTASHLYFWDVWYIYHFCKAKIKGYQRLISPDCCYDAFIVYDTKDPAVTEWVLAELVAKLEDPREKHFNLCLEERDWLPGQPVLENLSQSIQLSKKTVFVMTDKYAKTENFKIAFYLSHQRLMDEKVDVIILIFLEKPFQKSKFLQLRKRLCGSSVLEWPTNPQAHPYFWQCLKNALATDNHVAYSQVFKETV
# PBMC [2] = experiment: Induction of TNFalpha production in human PBMC at 10 ug/ml incubated for 24 hrs by flow cytometry analysis; format: functional, cell-based
# PBMC [3] = experiment: Induction of IL-12p70 production in human PBMC at 10 ug/ml incubated for 24 hrs by flow cytometry analysis; format: functional, cell-based
# [4] = molecular target: T2, Toll-like receptor 7 (Homo sapiens) (UniProt Q9NYK1); experiment: Antagonist activity at human TLR7 in HEK293 cells cotransfected with SEAP reporter gene assessed as activity of SEAP preincubated for 2 hrs followed by imiquimod addition further incubated for 24 hrs by quanti-blue staining based SEAP reporter gene assay; format: cell-based
# T2 sequence (whole entry): T1 sequence (Q9NYK1 whole entry)
# PBMC [5] = experiment: Induction of IL-8 production in human PBMC at 10 ug/ml incubated for 24 hrs by flow cytometry analysis; format: functional, cell-based
# PBMC [6] = experiment: Induction of IL-6 production in human PBMC at 10 ug/ml incubated for 24 hrs by flow cytometry analysis; format: functional, cell-based
# [7] = molecular target: T3, Toll-like receptor 8 (Homo sapiens) (UniProt Q9NR97); experiment: Agonist activity at human TLR8 in HEK293 cells cotransfected with SEAP reporter gene assessed as activity of SEAP incubated for 24 hrs by quanti-blue staining based SEAP reporter gene assay; format: cell-based
# T3 sequence (whole entry): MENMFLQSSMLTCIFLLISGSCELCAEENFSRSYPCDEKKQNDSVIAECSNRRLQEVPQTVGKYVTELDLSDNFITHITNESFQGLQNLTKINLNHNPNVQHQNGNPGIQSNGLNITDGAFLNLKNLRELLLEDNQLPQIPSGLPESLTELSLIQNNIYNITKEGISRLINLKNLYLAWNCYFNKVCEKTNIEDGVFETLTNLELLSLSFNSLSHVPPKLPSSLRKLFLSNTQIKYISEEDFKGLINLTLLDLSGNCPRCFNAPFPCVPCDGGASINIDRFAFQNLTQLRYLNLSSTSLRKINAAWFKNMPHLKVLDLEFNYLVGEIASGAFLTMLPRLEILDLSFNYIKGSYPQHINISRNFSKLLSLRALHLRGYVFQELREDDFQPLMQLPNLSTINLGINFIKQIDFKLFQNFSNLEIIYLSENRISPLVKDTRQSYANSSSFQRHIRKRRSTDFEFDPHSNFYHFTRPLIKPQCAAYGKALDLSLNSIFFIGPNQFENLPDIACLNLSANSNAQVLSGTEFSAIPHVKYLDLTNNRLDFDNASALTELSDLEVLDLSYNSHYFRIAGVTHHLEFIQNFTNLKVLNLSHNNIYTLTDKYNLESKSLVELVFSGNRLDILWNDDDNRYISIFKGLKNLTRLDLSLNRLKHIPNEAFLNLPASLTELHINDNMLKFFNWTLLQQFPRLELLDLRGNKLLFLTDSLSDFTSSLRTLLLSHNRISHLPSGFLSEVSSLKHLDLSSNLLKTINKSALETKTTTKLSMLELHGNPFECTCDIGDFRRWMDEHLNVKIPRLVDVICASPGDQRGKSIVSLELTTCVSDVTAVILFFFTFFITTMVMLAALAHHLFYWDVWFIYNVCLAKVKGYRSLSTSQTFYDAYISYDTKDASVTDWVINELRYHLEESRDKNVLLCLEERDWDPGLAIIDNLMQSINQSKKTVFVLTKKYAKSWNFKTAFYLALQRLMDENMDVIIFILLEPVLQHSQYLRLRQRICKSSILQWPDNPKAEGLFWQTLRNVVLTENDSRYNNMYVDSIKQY
EC50 (Toll-like receptor 7; hek293),Activity [4],EC50 (Toll-like receptor 7; read-out: EC50),Activity [7],SMILES,MNTC at 24 h [1],Activity (PBMC [2]),Activity (PBMC [3]),Activity (PBMC [5]),Activity (PBMC [6])
Not Active,,,,COCCn1cnc2c(=O)oc3ccccc3c21,≥ 250 µM,,,,
Not Active,,,,CC(C)Cn1cnc2c(=O)oc3ccc([N+](=O)[O-])cc3c21,62.5 µM,,,,
,inactive,16.8 µM,inactive,FC(F)(F)c1nc(NC2CC2)c2ccccc2n1,125 µM,inactive,inactive,Active,Active
,,6.2 to 8.2 µM,,CC(C)Cn1cnc2c(N)nc3ccccc3c21 [IMIQUIMOD],,inactive,inactive,Active,
Not Active,,,,Oc1nc(C(F)(F)F)nc2ccccc12,62.5 µM,,,,
Not Active,,,,CC(C)Cn1cnc2c(=O)oc3ccc(F)cc3c21,≥ 250 µM,,,,
,inactive,6.3 µM,inactive,CC(C)CNc1cc(C(F)(F)F)nc2ccccc12,62.5 µM,inactive,inactive,Active,Active
Not Active,,,,FC(F)(F)c1nc(NCCN2CCCCC2)c2ccccc2n1,62.5 µM,,,,
Not Active,,,,Nc1ccc(CNc2nc(C(F)(F)F)nc3ccccc23)cc1,15.6 µM,,,,
,inactive,8.3 µM,inactive,FC(F)(F)c1nc(NC2CCCCC2)c2ccccc2n1,31.3 µM,inactive,inactive,Active,Active
,inactive,4.4 µM,inactive,CC(C)CNc1nc(C(F)(F)F)nc2ccccc12,7.8 to 250 µM,,,,
Not Active,,,,CC1CCCN(c2cc(C(F)(F)F)nc3ccccc23)C1 (stereo not given),31.3 µM,,,,
,inactive,114 µM,inactive,CC(C)Cn1cnc2c(=O)oc3cc(O)ccc3c21,≥ 250 µM,,,,
,inactive,1.8 µM,inactive,CC(C)Cn1cnc2c(=O)oc3ccc(O)cc3c21,62.5 µM,inactive,inactive,inactive,inactive
,inactive,15.4 µM,inactive,FC(F)(F)c1nc(N2CCCC2)c2ccccc2n1,31.3 µM,,,,
,inactive,107 µM,inactive,CCCCn1cnc2c(=O)oc3ccccc3c21,≥ 250 µM,,,,
,inactive,44 µM,inactive,CCCNc1nc(C(F)(F)F)nc2ccccc12,62.5 µM,,,,
Not Active,,,,CCCn1cnc2c(=O)oc3ccccc3c21,≥ 250 µM,,,,
,inactive,10.9 µM,inactive,FC(F)(F)c1nc(NC2CCCC2)c2ccccc2n1,62.5 µM,,,,
,Active,,inactive,CC(C)Cn1cnc2c(=O)oc3ccccc3c21,,,,,

EC50 (Toll-like receptor 7; hek293),Activity [4],EC50 (Toll-like receptor 7; read-out: EC50),Activity [7],SMILES,MNTC at 24 h [1],Activity (PBMC [2]),Activity (PBMC [3]),Activity (PBMC [5]),Activity (PBMC [6])
Not Active,,,,C=CCn1cnc2c(=O)oc3ccccc3c21,≥ 250 µM,,,,
,inactive,66.6 µM,inactive,FC(F)(F)c1nc(NC2CCN(C3CC3)CC2)c2ccccc2n1,125 µM,,,,
,inactive,,,OCCNc1nc(C(F)(F)F)nc2ccccc12,125 µM,,,,
,inactive,57.4 µM,inactive,CC(C)Nc1nc(C(F)(F)F)nc2ccccc12,62.5 µM,,,,
Not Active,,,,Nc1nc(C(F)(F)F)nc2ccccc12,62.5 µM,,,,
Not Active,,,,CN1CCN(c2nc(C(F)(F)F)nc3ccccc23)CC1,7.8 to 250 µM,,,,
Not Active,,,,FC(F)(F)c1nc(N2CCOCC2)c2ccccc2n1,125 µM,,,,
Not Active,,,,COCCCn1cnc2c(=O)oc3ccccc3c21,≥ 250 µM,,,,
,inactive,279 µM,inactive,COc1ccc2c(c1)oc(=O)c1ncn(CC(C)C)c12,≥ 250 µM,,,,
Not Active,,,,FC(F)(F)c1nc(Cl)c2ccccc2n1,31.3 µM,,,,
,inactive,535 µM,inactive,Cc1ccc2oc(=O)c3ncn(CC(C)C)c3c2c1,≥ 250 µM,,,,
Not Active,,,,CC(C)n1cnc2c(=O)oc3ccccc3c21,≥ 250 µM,,,,
,inactive,29.9 µM,inactive,CCN(CC)c1ccc2c(c1)oc(=O)c1ncn(CC(C)C)c12,62.5 µM,,,,
Not Active,,,,FC(F)(F)c1nc(NCCc2cnc[nH]2)c2ccccc2n1,31.3 µM,,,,
,inactive,4 µM,inactive,CC1CCCN(c2nc(C(F)(F)F)nc3ccccc23)C1 (stereo not given),62.5 µM,,,,
Not Active,,,,COc1ccc2oc(=O)c3ncn(CC(C)C)c3c2c1,62.5 µM,,,,
Not Active,,,,CCn1cnc2c(=O)oc3ccc(F)cc3c21,≥ 250 µM,,,,
Not Active,,,,O=C(O)CNc1nc(C(F)(F)F)nc2ccccc12,31.3 µM,,,,
,inactive,15 µM,inactive,FC(F)(F)c1nc(NCC2CC2)c2ccccc2n1,31.3 µM,,,,

# Source: ChEMBL document CHEMBL4351003, “Selective Toll-like receptor 7 agonists with novel chromeno[3,4-d]imidazol-4(1H)-one and 2-(trifluoromethyl)quinoline/ quinazoline-4-amine scaffolds” (Eur J Med Chem, 2019)
